In this assay the target is Nucleic Acid. In words: Dissociation constant of conjugate DNA complexes in 0.05 HEPES buffer of pH 7.3, at room temperature. Type of assay: nucleic-acid assay.

As to `CCCCC(=O)N(CC(=O)NCCCC(=O)Nc1cc(C(=O)Nc2cc(C(=O)Nc3cc(C(=O)NCCCC(=O)Nc4cc(C(=O)Nc5cc(C(=O)Nc6cc(C(=O)NCCCN(C)C)n(C)c6)n(C)c5)n(C)c4)n(C)c3)n(C)c2)n(C)c1)CC(=O)NCCCC(=O)Nc1cc(C(=O)Nc2cc(C(=O)Nc3cc(C(=O)NCCCC(=O)Nc4cc(C(=O)Nc5cc(C(=O)Nc6cc(C(=O)NCCCN(C)C)n(C)c6)n(C)c5)n(C)c4)n(C)c3)n(C)c2)n(C)c1`, binding was put at a Kd of 4.3 nM. That is a single-digit nanomolar value. The figure for `CCCCC(=O)NCCCCCCOP(=O)(NCCCC(=O)Nc1cc(C(=O)Nc2cc(C(=O)Nc3cc(C(=O)NCCCC(=O)Nc4cc(C(=O)Nc5cc(C(=O)Nc6cc(C(=O)NCCCN(C)C)n(C)c6)n(C)c5)n(C)c4)n(C)c3)n(C)c2)n(C)c1)NCCCC(=O)Nc1cc(C(=O)Nc2cc(C(=O)Nc3cc(C(=O)NCCCC(=O)Nc4cc(C(=O)Nc5cc(C(=O)Nc6cc(C(=O)NCCCN(C)C)n(C)c6)n(C)c5)n(C)c4)n(C)c3)n(C)c2)n(C)c1` is 18 nM. To `CCCCC(=O)NCCCN(CC(=O)NCCCC(=O)Nc1cc(C(=O)Nc2cc(C(=O)Nc3cc(C(=O)NCCCC(=O)Nc4cc(C(=O)Nc5cc(C(=O)Nc6cc(C(=O)NCCCN(C)C)n(C)c6)n(C)c5)n(C)c4)n(C)c3)n(C)c2)n(C)c1)CC(=O)NCCCC(=O)Nc1cc(C(=O)Nc2cc(C(=O)Nc3cc(C(=O)NCCCC(=O)Nc4cc(C(=O)Nc5cc(C(=O)Nc6cc(C(=O)NCCCN(C)C)n(C)c6)n(C)c5)n(C)c4)n(C)c3)n(C)c2)n(C)c1` belongs 4.8 nM; to `CN(C)CCCNC(=O)c1cc(NC(=O)c2cc(NC(=O)c3cc(NC(=O)CCCNC(=O)c4cc(NC(=O)c5cc(NC(=O)c6cc(NC(=O)CCCNP(=O)(CCCCN7C(=O)c8ccccc8C7=O)NCCCC(=O)Nc7cc(C(=O)Nc8cc(C(=O)Nc9cc(C(=O)NCCCC(=O)Nc%10cc(C(=O)Nc%11cc(C(=O)Nc%12cc(C(=O)NCCCN(C)C)n(C)c%12)n(C)c%11)n(C)c%10)n(C)c9)n(C)c8)n(C)c7)cn6C)cn5C)cn4C)cn3C)cn2C)cn1C`, 34 nM.
